Several values for one entry are separate records, joined by “and”; a condition that tells them apart may be missing. Identical values can stand only once.
Tests used:
[1] = tested on: dispersed islet cells of donors with T1D; assay: Insulin secretion from dispersed islet cells of donors with T1D; format: cell-based, human; conditions: for Secretion of insulin: dispersed islet cells, T1D donors, one value per donor, Figure 2J;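 as to Secretion of insulin: insulin concentration in collected medium by Lumit immunoassay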
Method: Pancreata of nondiabetic C57BL/6J mice were digested using collagenase P (Roche Diagnostics, catalog 11213873001), and islets were manually picked up using a stereomicroscope (ZEISS Stemi 305). […] Isolated mouse islets or provided human islets were dispersed as described ([28]). Briefly, 100–120 islets were washed 2 times using modified HBSS, then dispersed in 600 μL Accutase (Innovative Cell Technologies, catalog AT-104) by gently pipetting up and down for 7 minutes at 37°C. […] Following refreshing of KRBH, cells were dispensed in 8 microfuge tubes (2,000 cells/tube) and treated with WCDD301, preclustered Ephrin-A5 Fc, or preclustered Fc in the presence or absence of the competitive inhibitor of EphA4 receptor, rhyncophylline ([60]) (MilliporeSigma, catalog SML2345). In the presence or absence of these effectors, secretion assay was performed sequentially as shown in Supplemental Table 5. […] Preclustering of Ephrin-A5 Fc was done by mixing Ephrin-A5 Fc or Fc alone (BioLegend, catalog 790102) with anti-Fc antibody (Invitrogen, catalog A16086) (1:10 molar ratio) 20 minutes before treatment ([62]). […] Shedding of cleaved EphA4 was measured from the cell culture medium. Experiments were performed by dispersion of 200 islets, and EphA4 levels in media were measured by EphA4 ELISA (ABclonal, catalog RK06572).
The Integrated Islet Distribution Program provided us human donor islets with their characteristics (Supplemental Table 6). Islets were centrifuged at 500g for 3 minutes, resuspended in CMRL 1066 medium (Gibco, catalog 1150-037) containing 11 mM glucose, and rested in an incubator overnight.
For the hormone secretion assay, islets or dispersed islet cells were adapted in KRBH buffer containing 11 mM glucose for 1 hour. Then, after 2 washes in HBSS containing 11 mM glucose, islets or cells were treated in the following sequential order in the presence or absence of WCDD301: incubation in KRBH (1 mM glucose, 30 minutes) followed by medium collection, incubation in KRBH (11 mM glucose, 30 minutes) followed by medium collection.

[2] = tested on: α cells of NOD mice islets; assay: EphA4 signal in α cells of pancreatic slices of NOD mice; format: in vivo, mouse; conditions: WCDD301-treated NOD mice; diabetic 12.64 ± 1.12, nondiabetic 18.62 ± 1.09
Method: (§1) Pancreata of NOD mice (females, n = 3 per group) from nondiabetic, diabetic placebo-treated, and diabetic WCDD301-treated cohorts were excised; fixed in 10% buffered formalin for 5 days; and treated with ethanol 70% for 2 days before paraffin embedding. The paraffin-embedded tissue blocks were longitudinally sectioned in 5 μm slices and fixed on microscope slides. Following deparaffinization (through incubation in graded xylene, graded ethanol, and PBS), permeabilization (using 0.1% Triton X-100 in PBS), and background blocking (using 5% BSA solution containing 0.1% Tween 20), samples were incubated with primary antibodies (mouse anti-glucagon, Abcam, catalog ab10988; above-mentioned rabbit anti-EphA4), secondary antibodies (goat anti-mouse IgG Alexa Fluor 488; Invitrogen, catalog A-11001; goat anti-rabbit IgG Alexa Fluor 633, Invitrogen, catalog A-21070), SPY555-Actin (Cytoskeleton, catalog SC202), and DAPI. Image acquisition and analysis were performed as for dispersed islet cells. […] ROIs were manually drawn around each islet, background signal was removed by thresholding, and intensity of glucagon signal was determined and normalized by the islet surface area. To determine sizes of α cells per islet, ROIs were manually drawn around α cells in each islet. […]

diabetic NOD mice [3] = assay: Insulin tolerance test in NOD mice; format: in vivo, mouse; conditions: WCDD301 dosing
Description: Following a 4-hour fast, nondiabetic placebo-treated (n = 4), diabetic placebo-treated (n = 4), and diabetic WCDD301-treated (n = 4) NOD female mice were intraperitoneally injected with insulin (Humulin-R; 0.75 U/kg, Eli Lilly and Company). […]

diabetic NOD mice [4] = assay: Daily food intake in NOD mice; format: in vivo, mouse; parameters: Daily food intake (Figure 7E): unit not given here; conditions: for Daily food intake (Figure 7E): Diabetic, WCDD301 treated
Method: We preweighed WCDD301 into microfuge tubes and reconstituted it using deionized water. Using a 10 μL pipette tip, we placed the calculated dose of WCDD301 (at the volume range of 1–1.5 μL) within the center of pearls. WCDD301 was placed into pearls 30–45 minutes before administration. For oral administration of pearls, we designed an applicator using a disposable plastic transfer pipette and syringe plunger lubricated with olive oil. Food intake and body weight in each experimental group (diabetic WCDD301-treated, diabetic placebo-treated, and nondiabetic placebo-treated NOD mice) were monitored daily for 4 weeks. Urine glucose was measured from individually caged NOD mice (nondiabetic placebo treated n = 2, diabetic placebo treated n = 2, and diabetic WCDD301 treated n = 4, 21–23 weeks old) with metabolic cages. Urine glucose was monitored every 24 hours for 10 days by semiquantitative measurements (P-STICKS, Millpledge Veterinary).

[5] = tested on: α cells of NOD mice islets; assay: α cell numbers and sizes in islets of NOD mice; format: in vivo, mouse; conditions: 11-week administration; Supplemental Figure 7
Method: as §1

With CC(=O)OCC(N)(COC(C)=O)COC(C)=O [WCDD301, 2-(acetoxymethyl)-2-aminopropane-1,3-diyl diacetate] the “Effect on insulin secretion” value ([1]; dispersed islet cells from donors with long-standing T1D) was “no effect on the minimal residual insulin secretion”, the Secretion of insulin ([1]; 1 mM glucose) was 0.0567 and 0.08 and the Secretion of insulin ([1]; 11 mM glucose) was 0.07 and 0.05. For the same compound, the “EphA4 signal within α cells” value [2] was 21.84 ± 1.14 AU, the “Blood glucose in insulin tolerance test, Normalize with basal (0 min) (Figure 6E)” value (diabetic NOD mice [3]; 15 min) was 0.89 and 0.91 and 0.86 and 0.88 and the “Blood glucose in insulin tolerance test, Normalize with basal (0 min) (Figure 6E)” value (diabetic NOD mice [3]; 30 min) was 0.67 and 0.69 and 0.65 and 0.68. The “Blood glucose in insulin tolerance test, Normalize with basal (0 min) (Figure 6E)” value (diabetic NOD mice [3]; 45 min) was 0.67 and 0.74 and 0.62 and 0.66, the “Blood glucose in insulin tolerance test, Normalize with basal (0 min) (Figure 6E)” value (diabetic NOD mice [3]; 60 min) was 0.71 and 0.73 and 0.77 and 0.72 and the “Blood glucose in insulin tolerance test, Normalize with basal (0 min) (Figure 6E)” value (diabetic NOD mice [3]; 90 min) was 0.7 and 0.8 and 0.75 and 0.96. The “Blood glucose in insulin tolerance test, Normalize with basal (0 min) (Figure 6E)” value (diabetic NOD mice [3]; 120 min) was 0.89 and 0.85 and 0.9 and 0.93, the “Daily food intake (Figure 7E)” value (diabetic NOD mice [4]; Day 1) was 188.5 and 161.1 and 187.4 and 162.1 and the “Daily food intake (Figure 7E)” value (diabetic NOD mice [4]; Day 2) was 210.5 and 168.9 and 209.3 and 170. The “Daily food intake (Figure 7E)” value (diabetic NOD mice [4]; Day 3) was 184.2 and 168.9 and 183.1 and 170, the “Daily food intake (Figure 7E)” value (diabetic NOD mice [4]; Day 4) was 192.5 and 167.7 and the “Daily food intake (Figure 7E)” value (diabetic NOD mice [4]; Day 7) was 203.2 and 168.3 and 202 and 169.4. For the same compound, the “Daily food intake (Figure 7E)” value (diabetic NOD mice [4]; Day 8) was 200 and 184.4 and 198.8 and 185.5, the “Daily food intake (Figure 7E)” value (diabetic NOD mice [4]; Day 9) was 226.3 and 184.4 and 225 and 185.5 and the “Daily food intake (Figure 7E)” value (diabetic NOD mice [4]; Day 10) was 211.6 and 161.9 and 188.3 and 170.8. The “Daily food intake (Figure 7E)” value (diabetic NOD mice [4]; Day 11) was 185.1 and 169.8 and 210.3 and 170.8, the “Daily food intake (Figure 7E)” value (diabetic NOD mice [4]; Day 12) was 193.5 and 169.8 and 184 and 169.5 and the “Daily food intake (Figure 7E)” value (diabetic NOD mice [4]; Day 13) was 182.7 and 168.5 and 192.3 and 160.2. The “Daily food intake (Figure 7E)” value (diabetic NOD mice [4]; Day 14) was 191.2 and 159.2 and 181.6, the “Daily food intake (Figure 7E)” value (diabetic NOD mice [4]; Day 15) was 204.2 and 190.1 and 190 and 170.2 and the “Daily food intake (Figure 7E)” value (diabetic NOD mice [4]; Day 16) was 201 and 169.2 and 203 and 186.4. The “Daily food intake (Figure 7E)” value (diabetic NOD mice [4]; Day 17) was 227.4 and 185.3 and 199.8 and 186.4, the “Daily food intake (Figure 7E)” value (diabetic NOD mice [4]; Day 18) was 190.4 and 185.3 and 226.1 and 163.7 and the “Daily food intake (Figure 7E)” value (diabetic NOD mice [4]; Day 19) was 212.6 and 162.7 and 189.2 and 171.7. The “Daily food intake (Figure 7E)” value (diabetic NOD mice [4]; Day 20) was 186.1 and 170.6 and 211.4 and 171.7, the “Daily food intake (Figure 7E)” value (diabetic NOD mice [4]; Day 21) was 194.4 and 170.6 and 184.9 and 170.4 and the “Daily food intake (Figure 7E)” value (diabetic NOD mice [4]; Day 22) was 183.6 and 169.3 and 193.3 and 161. The “Daily food intake (Figure 7E)” value (diabetic NOD mice [4]; Day 23) was 192.1 and 160 and 182.5 and 192.2, the “Daily food intake (Figure 7E)” value (diabetic NOD mice [4]; Day 24) was 205.2 and 191 and 171 and the “Daily food intake (Figure 7E)” value (diabetic NOD mice [4]; Day 25) was 202 and 170 and 204 and 187.3. For the same compound, the “Daily food intake (Figure 7E)” value (diabetic NOD mice [4]; Day 26) was 228.6 and 186.2 and 200.8 and 187.3, the “Daily food intake (Figure 7E)” value (diabetic NOD mice [4]; Day 27) was 177.9 and 175.1 and 174 and 179 and the “Daily food intake (Figure 7E)” value (diabetic NOD mice [4]; Day 28) was 225.9 and 175.3 and 174.1 and 226.9. The “Food intake, daily monitoring” value (diabetic NOD mice [4]; diabetic WCDD301-treated mice) was “phenotypes similar to nondiabetic placebo-treated mice” and the “Numbers or sizes of α cells (histology)” value [5] was “did not indicate any alterations in numbers or sizes of α cells”.
